Where two headings read alike, the source gives them in different places.
Legend:
[1] = biological target: T1, mouse 11β-HSD1 (Mus musculus, UniProt P50172); test: Enzyme inhibitory activity, mouse 11β-HSD1 (lysate of stably expressing CHO-K1 cells, cortisol by competitive ELISA); type: biochemical; conditions: Table 2; mouse 11β-HSD1, cell lysate, 37° C. for 1 hour; read-out: m HSD1 in vitro assay (IC50 uM)
T1 construct: The obtained PCR products of about 0.9 kbp, 1.2 kbp, and 0.9 kbp were subcloned into an expression vector pcDNA3.1+/Zeo; expressed in transfected cells
T1 sequence (P50172 whole entry): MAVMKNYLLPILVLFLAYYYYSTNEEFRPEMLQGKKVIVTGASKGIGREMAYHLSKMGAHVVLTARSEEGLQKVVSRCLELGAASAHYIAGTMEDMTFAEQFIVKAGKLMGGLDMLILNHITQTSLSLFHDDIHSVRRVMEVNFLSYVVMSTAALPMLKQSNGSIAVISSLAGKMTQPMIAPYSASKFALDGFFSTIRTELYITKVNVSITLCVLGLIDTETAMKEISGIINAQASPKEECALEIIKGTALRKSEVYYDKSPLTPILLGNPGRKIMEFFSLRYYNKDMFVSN
Summary of the method: (§1)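 Sonicated lysates of stably transfected cells (diluted to 0.1–0.4 mg/mL before addition) reacted for 1 h at 37 °C in pH 7.4 Tris/sucrose/EGTA/EDTA/MgCl2 buffer with 100 nmol/L cortisone or cortisol and 400 μmol/L NADPH or NAD+, then were heat-stopped at 95 °C. Inhibition rate = 100 minus residual activity.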

[2] = biological target: T2, human 11β-HSD1 (Homo sapiens, UniProt P28845); test: Enzyme inhibitory activity, human 11β-HSD1 (lysate of stably expressing HEK293 cells, cortisol by competitive ELISA); type: biochemical; conditions: human 11β-HSD1, cell lysate, 37° C. for 1 hour, read-out: h HSD1 in vitro assay (IC50 uM)
T2 construct: The obtained PCR products of about 0.9 kbp, 1.2 kbp, and 0.9 kbp were subcloned into an expression vector pcDNA3.1+/Zeo; expressed in transfected cells
T2 sequence (P28845 whole entry): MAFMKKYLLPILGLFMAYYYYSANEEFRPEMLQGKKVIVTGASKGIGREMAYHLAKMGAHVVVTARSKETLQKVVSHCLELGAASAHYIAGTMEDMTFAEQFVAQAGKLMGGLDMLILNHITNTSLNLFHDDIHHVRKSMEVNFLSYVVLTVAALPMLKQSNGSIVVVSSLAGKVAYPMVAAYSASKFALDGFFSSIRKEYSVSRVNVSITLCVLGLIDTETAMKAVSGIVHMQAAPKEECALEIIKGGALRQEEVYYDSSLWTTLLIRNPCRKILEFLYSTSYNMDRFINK
Summary of the method: as §1

| SMILES | IC50 [1] [µM] | IC50 ([2]; Table 1) [µM] | IC50 ([2]; Table 2) [µM] |
| --- | --- | --- | --- |
| Cc1ccc(C(=O)N2N(C3C4CC5CC(C4)CC3C5)C(=O)C2(C)C)c(C)c1 (centres unmarked) [Example 160, 1-[(2,4-dimethylphenyl)carbonyl]-4,4-dimethyl-2-(adamantan-2-yl)-1,2-diazetidin-3-one] | 0.16 | 0.52 |  |
| CC1(C)C(=O)N(C2C3CC4CC(C3)CC2C4)N1c1ccc(N)cc1 (centres unmarked) [Example 183, 1-(4-aminophenyl)-4,4-dimethyl-2-(adamantan-2-yl)-1,2-diazetidin-3-one] | 0.76 |  | 0.057 |
| Cc1ccccc1N1N(C2C3CC4CC(C3)CC2C4)C(=O)C1(C)C (centres unmarked) [Example 192, 4,4-dimethyl-1-(2-methylphenyl)-2-(adamantan-2-yl)-1,2-diazetidin-3-one] | 0.03 |  | 0.49 |
| COc1ccccc1N1N(C2C3CC4CC(C3)CC2C4)C(=O)C1(C)C (centres unmarked) [Example 205, 1-(2-methoxyphenyl)-4,4-dimethyl-2-(adamantan-2-yl)-1,2-diazetidin-3-one] | 0.2 | 0.1 |  |
| Cc1cccc(N2N(C3C4CC5CC(C4)CC3C5)C(=O)C2(C)C)c1C (centres unmarked) [Example 207, 1-(2,3-dimethylphenyl)-4,4-dimethyl-2-(adamantan-2-yl)-1,2-diazetidin-3-one] | 0.054 |  | 0.61 |
| COc1ccccc1N1N(C2CCCCCCC2)C(=O)C1(C)C [Example 220, 2-cyclooctyl-1-(2-methoxyphenyl)-4,4-dimethyl-1,2-diazetidin-3-one] | 0.088 | 0.056 |  |
| CC1(C)C(=O)N(C2CC3CCC2C3)N1c1cccc2ccccc12 (centres unmarked) [Example 225, 2-(bicyclo[2.2.1]heptan-2-yl)-4,4-dimethyl-1-(naphthalen-1-yl)-1,2-diazetidin-3-one] | 0.012 | 0.036 |  |
| CC1(C)C(=O)N([C@H]2C3CC4CC2C[C@](O)(C4)C3)N1c1cccc2ccccc12 [Example 236, trans-2-(5-hydroxyadamantan-2-yl)-4,4-dimethyl-1-(naphthalen-1-yl)-1,2-diazetidin-3-one] | 0.31 | 0.095 |  |
| CC1(C)C(=O)N([C@H]2C3CC4CC2C[C@@](O)(C4)C3)N1c1ccc(F)c2ccccc12 [Example 249, cis-1-(4-fluoronaphthalen-1-yl)-2-(5-hydroxyadamantan-2-yl)-4,4-dimethyl-1,2-diazetidin-3-one] | 0.78 | 0.013 |  |
| CC1(C)C(=O)N([C@H]2C3CC4CC2C[C@@](Cl)(C4)C3)N1c1cccc2ccccc12 [Example 257, cis-2-(5-chloroadamantan-2-yl)-4,4-dimethyl-1-(naphthalen-1-yl)-1,2-diazetidin-3-one] | 0.24 | 0.24 |  |
| CC1(C)C(=O)N(C2C3CC4CC(C3)CC2C4)N1CCc1ccccc1 (centres unmarked) [Example 266, 4,4-dimethyl-1-(2-phenylethyl)-2-(adamantan-2-yl)-1,2-diazetidin-3-one] | 0.47 |  | 0.55 |
| CC1(C)C(=O)N([C@H]2C3CC4CC2C[C@](C(=O)O)(C4)C3)N1c1cccc2ccccc12 [Example 274, trans-4-[2-(naphthalen-1-yl)-3,3-dimethyl-4-oxo-1,2-diazetidin-1-yl]adamantane-1-carboxylic acid] | 0.25 | 0.011 |  |
| CC1(C)C(=O)N([C@H]2C3CC4CC2C[C@](C(N)=O)(C4)C3)N1c1cccc(Cl)c1Cl [Example 277, trans-4-[2-(2,3-dichlorophenyl)-3,3-dimethyl-4-oxo-1,2-diazetidin-1-yl]adamantane-1-carboxamide] | 0.4 | 0.007 |  |

Second part, the compound after the results:

| IC50 [1] [µM] | IC50 ([2]; Table 1) [µM] | IC50 ([2]; Table 2) [µM] | SMILES |
| --- | --- | --- | --- |
| 0.15 | 0.44 |  | Cc1c(F)cccc1C(=O)N1N(C2C3CC4CC(C3)CC2C4)C(=O)C1(C)C (centres unmarked) [Example 157, 1-[(3-fluoro-2-methylphenyl)carbonyl]-4,4-dimethyl-2-(adamantan-2-yl)-1,2-diazetidin-3-one] |
| 0.36 |  | 0.86 | Cc1cccc(N2N(C3C4CC5CC(C4)CC3C5)C(=O)C2(C)C)c1 (centres unmarked) [Example 193, 4,4-dimethyl-1-(3-methylphenyl)-2-(adamantan-2-yl)-1,2-diazetidin-3-one] |
| 0.42 | 0.16 |  | COc1cccc(N2N(C3C4CC5CC(C4)CC3C5)C(=O)C2(C)C)c1 (centres unmarked) [Example 204, 1-(3-methoxyphenyl)-4,4-dimethyl-2-(adamantan-2-yl)-1,2-diazetidin-3-one] |
| 0.16 |  | 0.44 | CC1(C)C(=O)N(C2C3CC4CC(C3)CC2C4)N1c1csc2ccccc12 (centres unmarked) [Example 210, 1-(1-benzothiophen-3-yl)-4,4-dimethyl-2-(adamantan-2-yl)-1,2-diazetidin-3-one] |
| 0.23 |  | 0.56 | CC1(C)C(=O)N(C2C3CC4CC(C3)CC2C4)N1c1ccccc1O (centres unmarked) [Example 219, 1-(2-hydroxyphenyl)-4,4-dimethyl-2-(adamantan-2-yl)-1,2-diazetidin-3-one] |
| 0.34 | 0.044 |  | CC1(C)C(=O)N(C2CC3CCC2C3)N1c1cccc(Cl)c1Cl (centres unmarked) [Example 224, 2-(bicyclo[2.2.1]heptan-2-yl)-1-(2,3-dichlorophenyl)-4,4-dimethyl-1,2-diazetidin-3-one] |
| 0.27 |  | 0.18 | CC1(C)C(=O)N([C@H]2C3CC4CC2C[C@](O)(C4)C3)N1c1ccccc1O [Example 233, trans-1-(2-hydroxyphenyl)-2-(5-hydroxyadamantan-2-yl)-4,4-dimethyl-1,2-diazetidin-3-one] |
| 0.75 |  | 0.056 | CC1(C)C(=O)N([C@H]2C3CC4CC2C[C@](O)(C4)C3)N1c1ccc(N)cc1 [Example 235, trans-1-(4-aminophenyl)-2-(5-hydroxyadamantan-2-yl)-4,4-dimethyl-1,2-diazetidin-3-one] |
| 0.38 | 0.02 |  | CC1(C)C(=O)N([C@H]2C3CC4CC2C[C@](O)(C4)C3)N1c1ccc(F)c2ccccc12 [Example 238, trans-1-(4-fluoronaphthalen-1-yl)-2-(5-hydroxyadamantan-2-yl)-4,4-dimethyl-1,2-diazetidin-3-one] |
| 0.26 | 0.027 |  | CC1(C)C(=O)N([C@H]2C3CC4CC2C[C@@](O)(C4)C3)N1c1cccc2ccccc12 [Example 247, cis-2-(5-hydroxyadamantan-2-yl)-4,4-dimethyl-1-(naphthalen-1-yl)-1,2-diazetidin-3-one] |
| 0.24 | 0.034 |  | COCOc1ccccc1N1N([C@H]2C3CC4CC2C[C@](Cl)(C4)C3)C(=O)C1(C)C [Example 252, trans-2-(5-chloroadamantan-2-yl)-1-[2-(methoxymethoxy)phenyl]-4,4-dimethyl-1,2-diazetidin-3-one] |
| 0.075 | 0.012 |  | CC1(C)C(=O)N([C@H]2C3CC4CC2C[C@](Cl)(C4)C3)N1c1cccc2ccccc12 [Example 254, trans-2-(5-chloroadamantan-2-yl)-4,4-dimethyl-1-(naphthalen-1-yl)-1,2-diazetidin-3-one] |
| 0.18 | 0.003 |  | CC1(C)C(=O)N([C@H]2C3CC4CC2C[C@](Cl)(C4)C3)N1c1ccc(F)c2ccccc12 [Example 255, trans-2-(5-chloroadamantan-2-yl)-1-(4-fluoronaphthalen-1-yl)-4,4-dimethyl-1,2-diazetidin-3-one] |
| 0.7 |  | 0.45 | CC1(C)C(=O)N(C2C3CC4CC(C3)CC2C4)N1CCCc1ccccc1 (centres unmarked) [Example 261, 4,4-dimethyl-1-(3-phenylpropyl)-2-(adamantan-2-yl)-1,2-diazetidin-3-one] |
| 0.1 | 0.02 | 0.02 | CC1(C)C(=O)N(C2C3CC4CC2CC(C(N)=O)(C4)C3)N1c1cccc2ccccc12 (stereo not drawn) [Example 273, cis-4-[2-(naphthalen-1-yl)-3,3-dimethyl-4-oxo-1,2-diazetidin-1-yl]adamantane-1-carboxamide] |
| 0.25 | 0.011 |  | CC1(C)C(=O)N([C@H]2C3CC4CC2C[C@](C(N)=O)(C4)C3)N1c1cccc2ccccc12 [Example 275, trans-4-[2-(naphthalen-1-yl)-3,3-dimethyl-4-oxo-1,2-diazetidin-1-yl]adamantane-1-carboxamide] |
| 0.4 | 0.007 | 0.007 | CC1(C)C(=O)N(C2C3CC4CC2CC(C(N)=O)(C4)C3)N1c1cccc(Cl)c1Cl (stereo not drawn) [Example 276, cis-4-[2-(2,3-dichlorophenyl)-3,3-dimethyl-4-oxo-1,2-diazetidin-1-yl]adamantane-1-carboxamide] |
